From patent publication US9889146B2, “Benzoxaborole compounds and uses thereof” (priority 2012, dated 2018)
In brackets after ≈: the same amount, converted by molar mass. Several values for one entry are separate records, joined by “and”; a condition that tells them apart may be missing. Equal entries are not always repeated. Where two headings read alike, the source gives them in different places.

Legend:
Format in all cases: cell-based
[1] = tested on: Morganella morganii (AmpC); assay: microbe, parasite or virus in culture; conditions: Morganella morganii
P. aeruginosa ATCC 27853 = assay: Spontaneous frequency of resistance; conditions: 24 h
How it was run: (§1)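 Resistant mutants selected by plating varying inocula on MHBII noble agar with 4× or 10× MIC of GSK2251052, 24 and 48 h at 37 °C; resistance confirmed by regrowth on drug plates. Frequency = resistant colonies ÷ total cells plated, counted from dilutions of overnight culture on LB.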

E. coli ATCC 25922 = assay: Spontaneous frequency of resistance; conditions: 10 X MIC, 24 h
How it was run: as §1

K. pneumoniae ATCC 13883 = assay: Spontaneous frequency of resistance; conditions: 4 X MIC, 24 h
How it was run: as §1

[2] = tested on: E. coli ATCC 25922 wild type and mutants; assay: MIC, wild type and GSK2251052 resistant mutants; conditions: Escherichia coli
How it was run: (§2)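 MICs were determined following CLSI M7-A7 recommendations for aerobic bacteria. Strains were E. coli ATCC 25922, K. pneumoniae ATCC 13883, P. aeruginosa ATCC 27853 and six to ten laboratory-selected GSK2251052-resistant colonies of each, carrying mutations in the LeuRS editing domain.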

[3] = tested on: P. aeruginosa ATCC 27853 wild type and mutants; assay: MIC, wild type and GSK2251052 resistant mutants; conditions: Pseudomonas aeruginosa
How it was run: as §2

[4] = tested on: K. pneumoniae ATCC 13883 wild type and mutants; assay: MIC, wild type and GSK2251052 resistant mutants; conditions: Klebsiella pneumoniae
How it was run: as §2

[5] = tested on: E. coli clinical isolates from subject E. coli 2; assay: GSK2251052 MIC of clinical isolates, subject E. coli 2; conditions: for MIC: Escherichia coli, read-out: GSK2251052 MIC GSK results
Method: Minimum inhibitory concentrations (MICs) were determined using the CLSI (Clinical and Laboratory Standards Institute, formerly NCCLS) recommended broth microdilution methodology [NCCLS, 2003] using defined media.
Almost all clinical isolates were determined to contain T247I in addition to a second mutation in editing domains 1 or 2. The second mutations include Asp251Asn, Ala323 Val, Arg344Cys/His and Asp345Ala. On Day 11 and at Follow Up a double mutant (R344H; D345A) was also isolated (see Table 14). For these clinical isolates, five independent colonies were characterized from day 6 to late follow-up, and leuS and promoter regions were sequenced from all isolates.

## NC[C@H]1OB(O)c2c(OCCCO)cccc21 [GSK2251052, (S)-3-aminomethyl-7-(3-hydroxy-propoxy)-3h-benzo[c][1,2]oxaborol-1-ol]
[1]
  MIC90: 2 mg/L (≈ 8.44 µM)
[1]; read-out: susceptibility category of MIC90
  MIC90: < 4 mg/L
P. aeruginosa ATCC 27853; 4 X MIC
  Frequency of Resistance: 1 × 10^−7 and 2 × 10^−7
P. aeruginosa ATCC 27853; 10 X MIC
  Frequency of Resistance: 5 × 10^−8 and 9.6 × 10^−8
E. coli ATCC 25922
  Frequency of Resistance: 8 × 10^−8 and 6 × 10^−8 and 7 × 10^−8
K. pneumoniae ATCC 13883
  Frequency of Resistance: 4 × 10^−8 and 5 × 10^−8 and 8 × 10^−7
[2]; ATCC25922, E wt, leuRS mutation none, read-out: MIC
  MIC: 1 mg/L (≈ 4.22 µM)
[2]; ATCC25922, E. coli WT, read-out: GSK2251052 MIC
  MIC: 1 mg/L (≈ 4.22 µM)
[2]; ATCC25922, mutant E101, leuRS Y246H
  MIC: 64 mg/L (≈ 270 µM)
[2]; ATCC25922, mutant E102, leuRS D345G
  MIC: 256 mg/L (≈ 1080 µM)
[2]; ATCC25922, mutant E103, leuRS D345G (ditto mark)
  MIC: 256 mg/L (≈ 1080 µM)
[2]; ATCC25922, mutant E104, leuRS Y246H
  MIC: 64 mg/L (≈ 270 µM)
[2]; ATCC25922, mutant E105, leuRS D345G
  MIC: 256 mg/L (≈ 1080 µM)
[2]; ATCC25922, mutant E106, leuRS D345G
  MIC: 256 mg/L (≈ 1080 µM)
[2]; ATCC25922, mutant E107, leuRS G229S
  MIC: > 256 mg/L
[2]; ATCC25922, mutant E108, leuRS D345G
  MIC: 256 mg/L (≈ 1080 µM)
[2]; ATCC25922, mutant E109, leuRS D345G (ditto mark)
  MIC: 256 mg/L (≈ 1080 µM)
[2]; ATCC25922, mutant E110, leuRS Duplication D345 Y346
  MIC: > 256 mg/L
[3]; ATCC27853, P wt, leuRS mutation none, read-out: MIC
  MIC: 4 mg/L (≈ 16.9 µM)
[3]; ATCC27853, P. aeruginosa WT, read-out: GSK2251052 MIC
  MIC: 4 mg/L (≈ 16.9 µM)
[3]; ATCC27853, mutant P101, leuRS T256P
  MIC: 128 mg/L (≈ 540 µM)
[3]; ATCC27853, mutant P102, leuRS T256P (ditto mark)
  MIC: 32 mg/L (≈ 135 µM)
[3]; ATCC27853, mutant P103, leuRS T256P (ditto mark)
  MIC: 64 mg/L (≈ 270 µM)
[3]; ATCC27853, mutant P104, leuRS T256P (ditto mark)
  MIC: 128 mg/L (≈ 540 µM)
[3]; ATCC27853, mutant P105, leuRS T256P (ditto mark)
  MIC: 128 mg/L (≈ 540 µM)
[3]; ATCC27853, mutant P106, leuRS V342M
  MIC: > 256 mg/L
[3]; ATCC27853, mutant P107, leuRS V342M (ditto mark)
  MIC: 128 mg/L (≈ 540 µM)
[3]; ATCC27853, mutant P108, leuRS T252P
  MIC: 128 mg/L (≈ 540 µM)
[3]; ATCC27853, mutant P109, leuRS V342M
  MIC: 128 mg/L (≈ 540 µM)
[3]; ATCC27853, mutant P110, leuRS V342M (ditto mark)
  MIC: > 256 mg/L
[4]; ATCC13883, K wt, leuRS mutation none, read-out: MIC
  MIC: 1 mg/L (≈ 4.22 µM)
[4]; ATCC13883, K. pneumoniae WT, read-out: GSK2251052 MIC
  MIC: 1 mg/L (≈ 4.22 µM)
[4]; ATCC13883, mutant K104, leuRS D345Y
  MIC: > 256 mg/L
[4]; ATCC13883, mutant K105, leuRS G229R
  MIC: > 256 mg/L
[4]; ATCC13883, mutant K107, leuRS S227F
  MIC: 256 mg/L (≈ 1080 µM)
[4]; ATCC13883, mutant K108, leuRS T248P
  MIC: > 256 mg/L
[4]; ATCC13883, mutant K109, leuRS T248P (ditto mark)
  MIC: > 256 mg/L
[4]; ATCC13883, mutant K110, leuRS V338L
  MIC: 256 mg/L (≈ 1080 µM)
[5]; 24 h, subject E. Coli 2, day 1, no LeuRS change
  MIC: 0.25 mg/L
[5]; 48 h
  MIC: 512 mg/L
[5]; 72 h
  MIC: 512 mg/L
[5]; 96 h
  MIC: 512 mg/L
[5]; 120 h
  MIC: 512 mg/L
[5]; 144 h
  MIC: 1020 mg/L
[5]; 168 h
  MIC: 1020 mg/L
[5]; 192 h
  MIC: 1020 mg/L
[5]; 216 h
  MIC: 1020 mg/L
[5]; 240 h
  MIC: 1020 mg/L
[5]; 264 h
  MIC: 1020 mg/L
[5]; 288 h
  MIC: 1020 mg/L
[5]; 312 h
  MIC: 1020 mg/L
[5]
  MIC: 1020 mg/L
[5]; subject E. Coli 2, Follow-up, 5x R344H, D345A
  GSK2251052 MIC GSK results: 1024 mg/L
[5]; subject E. Coli 2, day 9, 4x T247I, D251N
  GSK2251052 MIC GSK results: 1024 mg/L
[5]; subject E. Coli 2, day 10, 3x T247I, A323V
  GSK2251052 MIC GSK results: 1024 mg/L
[5]; subject E. Coli 2, day 11, 4x R344H, D345A
  GSK2251052 MIC GSK results: 1024 mg/L
[5]; subject E. Coli 2, day 12, 4x T247I, A323V
  GSK2251052 MIC GSK results: 1024 mg/L
